# From patent publication US20080241919A1, “Defined media for pluripotent stem cell culture” (The Burnham Institute of Medical Research, priority 2003, published 2008)
# Test system: Oct-4 expression in hESCs
# Assay: hESCs carrying Oct-4 promoter-driven EGFP reporter, with or without bFGF
# Format: cell-based, human
# Source text: (d) bFGF is critical for sustaining undifferentiated growth of hESCs carrying an Oct-4-driven reporter gene. hESCs carrying a reporter gene (enhanced green fluorescence protein [EGFP]) that is under control of the Oct-4 promoter was generated via lentiviral-mediated transduction.
# FIG. 6: (a) Growth of hESCs carrying an Oct-4-driven reporter gene in the presence or absence of bFGF. hESCs carrying a reporter gene (enhanced green fluorescence protein [EGFP]) that is under control of the Oct-4 promoter was generated via lentiviral-mediated transduction. Transfected hESCs were cultivated under the feeder-free conditions in the defined media with bFGF (20 ng/ml) or without bFGF for 4 days. […] The cells were further dissociated and analyzed on a BD FacsSort instrument after staining with 7-aminoactinomycin D (7-AAD) to eliminate the dead cells [E]. With FACS-sorting, significant increases (200%) of Oct4-EGFP negative cells were observed after withdrawal bFGF for 4 days. (Note the actual percentage of Oct4-EGFP negative cells in the absence of bFGF should be even higher, because it takes around 2 days for the green fluorescence to be completely quenched after Oct-4 expression has been turned off.) (b) bFGF concentration in MEF-CM. Growth-arrested MEFs were obtained from Specialty Media (Phillipsburg, N.J.). […] 50 μl of concentrates was loaded onto a SDS/PAGE gel and analyzed by Western blot. […]
# To discover the minimal essential conditions needed to support the long-term growth of undifferentiated hESCs, morphological analysis was used to assess the developmental stage of hESCs at different times. […] The state of differentiation of hESC was further assessed by generating (via lentiviral-mediated transduction) hESCs carrying a reporter gene (enhanced green fluorescence protein (EGFP)) under control of the Oct-4 promoter. Using these transfected hESCs (carrying Oct-4 driven EGFP), the undifferentiated state of hESCs can be visualized by green fluorescence (indicating Oct-4 expression). […]
substance,measurement,setting,value
"bFGF: basic fibroblast growth factor, growth factor added to the defined hESC media",cells inside colonies with differentiated morphology that ceased Oct-4 expression,"absence of bFGF, first passage (day 7 after seeding)",more than 70%
same,morphology and Oct-4-driven EGFP fluorescence of hESC colonies,"defined media containing 20 ng/ml bFGF, feeder-free",undifferentiated morphology and strong green fluorescence
same,increase of Oct4-EGFP negative cells by FACS,withdrawal of bFGF for 4 days,200%
